Values quoted from earlier work in patent publication US6699871B2, “Beta-amino heterocyclic dipeptidyl peptidase inhibitors for the treatment or prevention of diabetes” (Merck & Co., Inc., priority 2001, dated 2004).

Key:
DP-IV = target: T1, DP-IV (Homo sapiens, UniProt P27487)
T1 construct: GRF is rapidly degraded in plasma to GRF[3-44]

hematopoiesis = settings: mouse, cyclophosphamide-induced neutropenia

T1 sequence (P27487 whole entry): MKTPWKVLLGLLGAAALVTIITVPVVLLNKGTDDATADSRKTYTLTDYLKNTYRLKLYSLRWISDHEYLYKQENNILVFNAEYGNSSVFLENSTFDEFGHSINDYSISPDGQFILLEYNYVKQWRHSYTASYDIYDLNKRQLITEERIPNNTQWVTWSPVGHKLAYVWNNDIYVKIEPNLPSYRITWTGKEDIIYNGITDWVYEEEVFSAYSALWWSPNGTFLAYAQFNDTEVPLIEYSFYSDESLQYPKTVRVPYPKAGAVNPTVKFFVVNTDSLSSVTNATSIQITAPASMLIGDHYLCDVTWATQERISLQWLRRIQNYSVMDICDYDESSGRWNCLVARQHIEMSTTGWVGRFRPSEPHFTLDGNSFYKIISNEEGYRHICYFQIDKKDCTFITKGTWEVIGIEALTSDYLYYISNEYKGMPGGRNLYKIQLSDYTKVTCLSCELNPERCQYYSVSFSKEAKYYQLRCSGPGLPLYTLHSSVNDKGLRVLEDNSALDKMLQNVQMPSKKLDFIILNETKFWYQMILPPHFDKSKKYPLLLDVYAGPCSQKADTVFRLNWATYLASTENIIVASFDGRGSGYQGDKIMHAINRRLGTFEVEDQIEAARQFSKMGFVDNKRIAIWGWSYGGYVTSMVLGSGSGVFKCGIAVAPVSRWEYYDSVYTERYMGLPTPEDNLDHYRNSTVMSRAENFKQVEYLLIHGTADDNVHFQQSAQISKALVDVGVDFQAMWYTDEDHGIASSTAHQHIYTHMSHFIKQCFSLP

Row | SMILES | degradation of GRF in plasma to GRF[3-44] (DP-IV) | effect on hematopoiesis (hematopoiesis)
1 | CC[C@H](C)[C@H](N)C(=O)N1CCC[C@H]1C(=O)N[C@H](C(=O)O)[C@@H](C)CC [diprotin A] | prevented | –
2 | CC(C)[C@H](N)C(=O)N1CCC[C@H]1B(O)O [Val-Boro-Pro] | – | stimulated hematopoiesis
